In article PMC2829070 (PLoS Pathogens, 2010):
Several values for one entry are separate records, joined by “and”; a condition that tells them apart may be missing. Identical values can stand only once.

How the values were obtained:
HN30408cl7 (H5N1) [1] = system: HN30408cl7 (H5N1); parameters: species or system BALB/c mice; Virus titers in Lungs, Day 6 / Virus titers in Lungs, Day 9 / Virus titers in Brain, Day 9: unit not given here; details: mouse, in vivo
HN30408cl7 (H5N1) [2] = system: HN30408cl7 (H5N1); parameters: species or system BALB/c mice; Virus titer in Lungs, Day 3 / Virus titer in Lungs, Day 6: unit not given here; details: mouse, in vivo
Ind3006 (H5N1) [3] = format: in vivo, BALB/c mice; details: 21 days
HN30408cl7 (H5N1) [4] = system: HN30408cl7 (H5N1); parameters: species or system BALB/c mice; details: mouse, in vivo
HN30408cl7 (H5N1) [5] = format: in vivo, BALB/c mice; details: 21 days
Ind3006 (H5N1) [6] = system: Ind3006 (H5N1); parameters: species or system BALB/c mice; Virus titers in Lungs, Day 6 / Virus titers in Brain, Day 6: unit not given here; details: mouse, in vivo
NA of B/Mie/1/93 = format: binding, influenza B virus
[7] = system: NA of A/New Caledonia/20/99 (H1N1); format: binding, influenza A virus (H1N1)
[8] = molecular target: NA of Ind3006 (A/Indonesia/UT3006/05, H5N1) (Influenza A virus, UniProt I6YWY9); experiment: biochemical
[9] = system: NA of A/Panama/2007/99 (H3N2); format: binding, influenza A virus (H3N2)

[H]/N=C(\N)N[C@H]1C=C(C(=O)O)O[C@@H]([C@H](OC)[C@H](O)COC(=O)CCCCCCC)[C@@H]1NC(C)=O [CS-8958]
Virus titers in Brain, Day 3 (HN30408cl7 (H5N1) [1]): <1.6
Virus titers in Brain, Day 6 (HN30408cl7 (H5N1) [1]): 2.0±0.3 and <1.6
Virus titer in Brain, Day 3 (HN30408cl7 (H5N1) [2]): <1.6
mice protected from lethal infection (Ind3006 (H5N1) [3]): 70%
prophylactic efficacy (survival) (HN30408cl7 (H5N1) [4]): limited
protection from the lethal infection (prophylaxis) (HN30408cl7 (H5N1) [4]): significantly protected
mice protected from lethal infection (HN30408cl7 (H5N1) [5]): 90%
Virus titers in Brain, Day 3 (Ind3006 (H5N1) [6]): <1.6
Virus titers in Brain, Day 6 (Ind3006 (H5N1) [6]): <1.6
Virus titers in Brain, Day 9 (Ind3006 (H5N1) [6]): <1.6
Virus titers in Lungs, Day 6 (Ind3006 (H5N1) [6]): 7.2±0.1 and 4.5±1.4
Virus titers in Lungs, Day 9 (Ind3006 (H5N1) [6]): <1.7

CCC(CC)O[C@@H]1C=C(C(=O)O)C[C@H](N)[C@H]1NC(C)=O [Oseltamivir carboxylate]
Slope of the dissociation curve (NA of B/Mie/1/93): 381.21
recovery of NA activity (NA of B/Mie/1/93): almost fully recovered
Slope of the dissociation curve [7]: 173.34
IC50 [8]: 10 nM
Slope of the dissociation curve [9]: 6.97

CCOC(=O)C1=C[C@@H](OC(CC)CC)[C@H](NC(C)=O)[C@@H](N)C1 [Oseltamivir phosphate]
Virus titers in Brain, Day 3 (HN30408cl7 (H5N1) [1]): <1.6
Virus titers in Brain, Day 9 (HN30408cl7 (H5N1) [1]): 4.8 and 4.7±0.4 and 3.7 and 5.1
Virus titers in Lungs, Day 3 (HN30408cl7 (H5N1) [1]): 6.0±0.1 and 5.0±0.6 and 6.2±0.2
Virus titers in Lungs, Day 6 (HN30408cl7 (H5N1) [1]): 5.2±0.1 and 5.5±0.4 and 3.8±0.5 and 6.4±0.6
Virus titers in Lungs, Day 9 (HN30408cl7 (H5N1) [1]): 4.9±1.8 and 4.7±0.6 and 4.7±1.4 and 6.1
Virus titer in Brain, Day 3 (HN30408cl7 (H5N1) [2]): <1.6
Virus titer in Brain, Day 6 (HN30408cl7 (H5N1) [2]): 2.6 and <1.6
Virus titer in Lungs, Day 3 (HN30408cl7 (H5N1) [2]): 5.5±0.7 and 4.3±1.9 and 3.2±2.9 and 5.8±0.8
Virus titer in Lungs, Day 6 (HN30408cl7 (H5N1) [2]): 5.6±0.4 and 6.1±0.2 and 6.0±0.0 and 6.0±0.4
mice protected from lethal infection (Ind3006 (H5N1) [3]): less than half
mice saved from lethal infection (Ind3006 (H5N1) [3]): 50%
prophylactic efficacy (survival) (HN30408cl7 (H5N1) [4]): limited
mice protected from lethal infection (HN30408cl7 (H5N1) [5]): less than half
mice saved from lethal infection (HN30408cl7 (H5N1) [5]): 90%
Virus titers in Brain, Day 3 (Ind3006 (H5N1) [6]): <1.6
Virus titers in Brain, Day 6 (Ind3006 (H5N1) [6]): 3.1±0.3 and 2.6±0.1 and 3.2±1.2 and 3.3±0.9
Virus titers in Brain, Day 9 (Ind3006 (H5N1) [6]): <1.6
Virus titers in Lungs, Day 3 (Ind3006 (H5N1) [6]): 7.5±0.1 and 7.2±0.1 and 7.1±0.2
Virus titers in Lungs, Day 6 (Ind3006 (H5N1) [6]): 7.5±0.2 and 7.4±0.2 and 7.4±0.1 and 7.2±0.1
Virus titers in Lungs, Day 9 (Ind3006 (H5N1) [6]): <1.7

CC(=O)N[C@H]1[C@H]([C@H](O)[C@H](O)CO)OC(C(=O)O)=C[C@@H]1N=C(N)N [Zanamivir]
Slope of the dissociation curve (NA of B/Mie/1/93): 184.10
Slope of the dissociation curve [7]: 140.10
IC50 [8]: 0.07 nM
Slope of the dissociation curve [9]: 2.10

Peramivir
Slope difference (NA of B/Mie/1/93): -773.42
Slope of the dissociation curve (NA of B/Mie/1/93): 180.66
Slope difference [7]: -456.52
Slope of the dissociation curve [7]: 43.10
Slope difference [9]: -48.81
Slope of the dissociation curve [9]: 0.19
